Measurements: paper PMC8305169, “Two Pathway-Specific Transcriptional Regulators, PltR and PltZ, Coordinate Autoinduction of Pyoluteorin in Pseudomonas protegens Pf-5” (Microorganisms, 2021)

Molecular target: T1, PltZ (Pseudomonas protegens, UniProt Q4KCY3)
T1 construct: full-length, N-terminal 6xHis tag (pET28a), expressed in E. coli BL21 (DE3), Ni-NTA purified
Experiment: isothermal titration calorimetry
Format: binding

T1 sequence (Q4KCY3 entry or part of it): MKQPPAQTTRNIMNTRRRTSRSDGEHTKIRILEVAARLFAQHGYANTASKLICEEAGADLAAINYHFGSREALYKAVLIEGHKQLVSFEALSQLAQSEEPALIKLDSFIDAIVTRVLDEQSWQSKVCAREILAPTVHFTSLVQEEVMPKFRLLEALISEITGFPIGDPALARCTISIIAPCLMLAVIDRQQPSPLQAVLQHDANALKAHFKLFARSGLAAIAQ

O=C(c1cc(Cl)c(Cl)[nH]1)c1c(O)cccc1O [pyoluteorin]
Kd: ~13.2 nM
